Patent publication US20110118238A1, “2-ANILINOPURIN-8-ONES AS INHIBITORS OF TTK/MPS1 FOR THE TREATMENT OF PROLIFERATIVE DISORDERS” (ASTRAZENECA AB, priority 2007, published 2011)

Columns and labels:
[1] = target: T1, N-terminal GST tagged full length human TTK kinase (Homo sapiens, UniProt P33981); assay: In Vitro TTK Kinase Assay 2 (Caliper LabChip LC3000); type: biochemical; conditions: recombinant TTK, 12 μM ATP, read-out: EAA2: Enzyme Assay Activity (In Vitro TTK kinase assay 2)
T1 construct: N-terminal GST tagged full length human TTK kinase; GST (N); made in house; host or cells: insect cells
T1 sequence (P33981 1-857): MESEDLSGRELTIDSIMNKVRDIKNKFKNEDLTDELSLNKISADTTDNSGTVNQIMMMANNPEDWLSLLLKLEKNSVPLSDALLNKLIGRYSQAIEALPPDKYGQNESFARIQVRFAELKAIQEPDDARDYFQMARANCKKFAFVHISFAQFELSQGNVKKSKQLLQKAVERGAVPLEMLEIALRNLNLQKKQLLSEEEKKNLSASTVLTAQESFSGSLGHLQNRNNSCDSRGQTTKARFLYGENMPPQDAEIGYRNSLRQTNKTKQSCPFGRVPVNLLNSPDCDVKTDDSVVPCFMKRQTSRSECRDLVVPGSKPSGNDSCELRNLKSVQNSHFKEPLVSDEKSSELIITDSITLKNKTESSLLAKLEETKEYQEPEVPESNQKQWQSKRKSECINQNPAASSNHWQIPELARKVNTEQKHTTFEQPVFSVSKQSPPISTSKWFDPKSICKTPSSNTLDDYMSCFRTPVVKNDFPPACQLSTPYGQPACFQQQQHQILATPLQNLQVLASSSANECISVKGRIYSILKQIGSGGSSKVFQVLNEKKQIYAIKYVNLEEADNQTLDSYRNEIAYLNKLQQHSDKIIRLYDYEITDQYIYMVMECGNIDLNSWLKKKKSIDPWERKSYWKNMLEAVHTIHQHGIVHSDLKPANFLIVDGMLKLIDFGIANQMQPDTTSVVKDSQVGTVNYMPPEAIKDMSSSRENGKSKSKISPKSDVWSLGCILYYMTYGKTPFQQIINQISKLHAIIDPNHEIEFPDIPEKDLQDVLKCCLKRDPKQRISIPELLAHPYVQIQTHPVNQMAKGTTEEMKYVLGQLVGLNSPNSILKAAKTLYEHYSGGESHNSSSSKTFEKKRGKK
Protocol: Each reaction was stopped by the addition of EDTA to a concentration of 40 mM in a solution which also comprised 0.1% coating reagent (Caliper LS), 100 mM HEPES pH 7.5, 0.015% v/v Brij™-35 and 5% DMSO. The stopped enzyme reactions were sipped through capillaries onto a Caliper chip where the peptide substrate and phosphorylated product were separated and detected via laser-induced fluorescence.

[2] = target: T1, N-terminal GST tagged full length human TTK kinase; assay: In Vitro TTK Kinase Assay 1 (AlphaScreen); type: biochemical; conditions: recombinant TTK, 10 μM ATP, read-out: EAA: Enzyme Assay Activity (In Vitro TTK kinase assay 1)
Protocol: Aliquots (2 μL) of each compound dilution were placed into wells of a Greiner 384-well low volume white polystyrene plate (Greiner Bio-one).
The resultant signals arising from laser light excitation at 680 nm were read using a Packard Envision instrument.

IC50 [1] [nM]	IC50 [2] [nM]	Compound
2010	9240	CCN1CCC(NC(=O)c2cc(F)c(Nc3ncc4c(n3)n(C3CCCC3)c(=O)n4C)cc2F)CC1 [Example 17, 4-[(9-Cyclopentyl-7-methyl-8-oxo-8,9-dihydro-7H-purin-2-yl)-amino]-N-(1-ethylpiperidin-4-yl)-2,5-difluorobenzamide]
	5650	COc1cc(C2CCN(C)CC2)ccc1Nc1ncc2c(n1)n(C(C)C)c(=O)n2C [Example 47, 9-Isopropyl-2-{[2-methoxy-4-(1-methylpiperidin-4-yl)phenyl]-amino}-7-methyl-7,9-dihydro-8H-purin-8-one]
65.3		COc1cc(C(=O)N[C@@H]2CCNC2)ccc1Nc1ncc2c(n1)n(C1CCCC1)c(=O)n2C [Example 68, 4-[(9-Cyclopentyl-7-methyl-8-oxo-8,9-dihydro-7H-purin-2-yl)-amino]-3-methoxy-N-[(3R)-pyrrolidin-3-yl]benzamide]
41.3		COc1cc(C(=O)N[C@H]2CCNC2)ccc1Nc1ncc2c(n1)n(C1CCCC1)c(=O)n2C [Example 69, 4-[(9-Cyclopentyl-7-methyl-8-oxo-8,9-dihydro-7H-purin-2-yl)-amino]-3-methoxy-N-[(3S)-pyrrolidin-3-yl]benzamide]
5360		COc1cc(N2CCN(C)CC2)ccc1Nc1ncc2c(n1)n(C1CCNCC1)c(=O)n2C [Example 70, 2-{[2-Methoxy-4-(4-methylpiperazin-1-yl)phenyl]amino}-7-methyl-9-piperidin-4-yl-7,9-dihydro-8H-purin-8-one]
586		Cn1c(=O)n(C2CCCC2)c2nc(Nc3ccc(C(=O)c4ccccc4)cc3)ncc21 [Example 71, 2-[(4-Benzoylphenyl)amino]-9-cyclopentyl-7-methyl-7,9-dihydro-8H-purin-8-one]
27		Cn1c(=O)n(C2CCCC2)c2nc(Nc3ccc(N4CCOCC4)c(Cl)c3)ncc21 [Example 72, 2-[(3-Chloro-4-morpholin-4-ylphenyl)amino]-9-cyclopentyl-7-methyl-7,9-dihydro-8H-purin-8-one]
106		Cn1c(=O)n(C2CCCC2)c2nc(Nc3ccc(CCO)cc3)ncc21 [Example 73, 9-Cyclopentyl-2-{[4-(2-hydroxyethyl)phenyl]amino}-7-methyl-7,9-dihydro-8H-purin-8-one]
29.1		CC(C)Oc1ccc(Nc2ncc3c(n2)n(C2CCCC2)c(=O)n3C)cc1 [Example 74, 9-Cyclopentyl-2-[(4-isopropoxyphenyl)amino]-7-methyl-7,9-dihydro-8H-purin-8-one]
523		Cn1c(=O)n(C2CCCC2)c2nc(Nc3ccc(Oc4ccccc4)cc3)ncc21 [Example 75, 9-Cyclopentyl-7-methyl-2-[(4-phenoxyphenyl)amino]-7,9-dihydro-8H-purin-8-one]
18.3		Cn1c(=O)n(C2CCCC2)c2nc(Nc3ccc(-c4cnco4)cc3)ncc21 [Example 76, 9-Cyclopentyl-7-methyl-2-{[4-(1,3-oxazol-5-yl)phenyl]amino}-7,9-dihydro-8H-purin-8-one]
109		Cn1c(=O)n(C2CCCC2)c2nc(Nc3ccc(N4CCCCC4)cc3)ncc21 [Example 77, 9-Cyclopentyl-7-methyl-2-[(4-piperidin-1-ylphenyl)amino]-7,9-dihydro-8H-purin-8-one]
195		Cn1c(=O)n(C2CCCC2)c2nc(Nc3ccc(Cc4ccccc4)cc3)ncc21 [Example 78, 2-[(4-Benzylphenyl)amino]-9-cyclopentyl-7-methyl-7,9-dihydro-8H-purin-8-one]
45.2		Cn1c(=O)n(C2CCCC2)c2nc(Nc3ccc(-n4cccn4)cc3)ncc21 [Example 79, 9-Cyclopentyl-7-methyl-2-{[4-(1H-pyrazol-1-yl)phenyl]amino}-7,9-dihydro-8H-purin-8-one]
140		Cn1c(=O)n(C2CCCC2)c2nc(Nc3ccc(N4CCOCC4)cc3)ncc21 [Example 80, 9-Cyclopentyl-7-methyl-2-[(4-morpholin-4-ylphenyl)amino]-7,9-dihydro-8H-purin-8-one]

More lines, now with the values behind:

Compound	IC50 [1] [nM]	IC50 [2] [nM]
4-[(9-Cyclopentyl-7-ethyl-8-oxo-8,9-dihydro-7H-purin-2-yl)-amino]-3-methoxy-N-(1-methylpiperidin-4-yl)benzamide [Example 33]	38.2	398
COc1cc(C(=O)NC2CCN(C)CC2)ccc1Nc1ncc2c(n1)n(C1CCCC1)c(=O)n2C [Example 1]	64.6	622
Cc1cc(S(N)(=O)=O)ccc1Nc1ncc2c(n1)n(C1CCCC1)c(=O)n2C [Example 2, 4-[(9-Cyclopentyl-7-methyl-8-oxo-8,9-dihydro-7H-purin-2-yl)-amino]-3-methylbenzenesulfonamide]	16.6	1280
COc1cc(N2CCN(C)CC2)ccc1Nc1ncc2c(n1)n(C1CCCC1)c(=O)n2C [Example 4, 9-Cyclopentyl-2-{[2-methoxy-4-(4-methylpiperazin-1-yl)-phenyl]amino}-7-methyl-7,9-dihydro-8H-purin-8-one]	22.9	213
COc1cc(N2CCOCC2)ccc1Nc1ncc2c(n1)n(C1CCCC1)c(=O)n2C [Example 6, 9-Cyclopentyl-2-[(2-methoxy-4-morpholin-4-ylphenyl)-amino]-7-methyl-7,9-dihydro-8H-purin-8-one]	78	396
COc1cc(NS(C)(=O)=O)ccc1Nc1ncc2c(n1)n(C1CCCC1)c(=O)n2C [Example 7, N-{4-[(9-Cyclopentyl-7-methyl-8-oxo-8,9-dihydro-7H-purin-2-yl)-amino]-3-methoxyphenyl}methanesulfonamide]	30.7	714
CN1CCC(NC(=O)c2ccc(Nc3ncc4c(n3)n(C3CCCC3)c(=O)n4C)cc2F)CC1 [Example 8, 4-[(9-Cyclopentyl-7-methyl-8-oxo-8,9-dihydro-7H-purin-2-yl)-amino]-2-fluoro-N-(1-methylpiperidin-4-yl)benzamide]	633	3910
CNC(=O)c1ccc(Nc2ncc3c(n2)n(C2CCCC2)c(=O)n3C)c(OC)c1 [Example 9, 4-[(9-Cyclopentyl-7-methyl-8-oxo-8,9-dihydro-7H-purin-2-yl)amino]-3-methoxy-N-methylbenzamide]	32.2	328
COc1cc(C(=O)N2CCCC2)ccc1Nc1ncc2c(n1)n(C1CCCC1)c(=O)n2C [Example 10, 9-Cyclopentyl-2-{[2-methoxy-4-(pyrrolidin-1-ylcarbonyl)-phenyl]amino}-7-methyl-7,9-dihydro-8H-purin-8-one]	19.4	1050
Cn1c(=O)n(C2CCCC2)c2nc(Nc3ccc(S(N)(=O)=O)cc3)ncc21 [Example 11, 4-[(9-Cyclopentyl-7-methyl-8-oxo-8,9-dihydro-7H-purin-2-yl)-amino]benzenesulfonamide]	167	9650
Cn1c(=O)n(C2CCCC2)c2nc(Nc3ccc(N4CCS(=O)(=O)CC4)cc3)ncc21 [Example 12, 9-Cyclopentyl-2-{[4-(1,1-dioxidothiomorpholin-4-yl)-phenyl]-amino}-7-methyl-7,9-dihydro-8H-purin-8-one]	15.2	1170
COc1cc(C(=O)NC2CC3CCCC(C2)N3C)ccc1Nc1ncc2c(n1)n(C1CCCC1)c(=O)n2C (centres unmarked) [Example 14, 4-[(9-Cyclopentyl-7-methyl-8-oxo-8,9-dihydro-7H-purin-2-yl)-amino]-3-methoxy-N-(9-methyl-9-azabicyclo[3.3.1]non-3-yl)benzamide]	69.7	1560
CN1CCC(NC(=O)c2ccc(Nc3ncc4c(n3)n(C3CCCC3)c(=O)n4C)c(Cl)c2)CC1 [Example 15, 3-Chloro-4-[(9-cyclopentyl-7-methyl-8-oxo-8,9-dihydro-7H-purin-2-yl)amino]-N-(1-methylpiperidin-4-yl)benzamide]	235	3230
CN1C2CCCC1CC(NC(=O)c1ccc(Nc3ncc4c(n3)n(C3CCCC3)c(=O)n4C)c(F)c1)C2 (centres unmarked) [Example 16, 4-[(9-Cyclopentyl-7-methyl-8-oxo-8,9-dihydro-7H-purin-2-yl)-amino]-3-fluoro-N-(9-methyl-9-azabicyclo[3.3.1]non-3-yl)-benzamide]	313	1680
